Drawing on BindingDB's records for patent US9682141 (Intellikine LLC, 2017), this text covers IC50 for 2 molecules.

Assay [1] addresses Phosphatidylinositol 4,5-bisphosphate 3-kinase catalytic subunit beta isoform (Homo sapiens, UniProt P42338). Kind of assay: PI 3-Kinase HTRF Assay. To be noted: 25 °C. In general terms: In TR-FRET formats the signal depends on donor and acceptor labels being close together.
Procedure: (§1) Briefly, the assay is a time resolved FRET assay that indirectly measures PIP3 product formed by the activity of a PI3-K. The kinase reaction is performed in a microtitre plate (e.g., a 384 well microtitre plate). The total reaction volume is approximately 20 ul per well. In the first step, each well receives 2 ul of test compound in 20% dimethylsulphoxide resulting in a 2% DMSO final concentration. Next, approximately 14.5 ul of a kinase/PIP2 mixture (diluted in 1x reaction buffer) is added per well for a final concentration of 0.25-0.3 ug/ml kinase and 10 uM PIP2. The plate is sealed and incubated for 15 minutes at room temperature. To start the reaction, 3.5 ul of ATP (diluted in 1x reaction buffer) is added per well for a final concentration of 10 uM ATP. The plate is sealed and incubated for 1 hour at room temperature. The reaction is stopped by adding 5 ul of Stop Solution per well and then 5 ul of Detection Mix is added per well. The plate is sealed, incubated for 1 hour at room temperature, and then read on an appropriate plate reader.
The target in assay [2] is Phosphatidylinositol 4,5-bisphosphate 3-kinase catalytic subunit alpha isoform (Homo sapiens, UniProt P42336). Kind of assay: PI 3-Kinase HTRF Assay. To be noted: 25 °C.
Sequence of Phosphatidylinositol 4,5-bisphosphate 3-kinase catalytic subunit alpha isoform (P42336 whole entry, canonical isoform): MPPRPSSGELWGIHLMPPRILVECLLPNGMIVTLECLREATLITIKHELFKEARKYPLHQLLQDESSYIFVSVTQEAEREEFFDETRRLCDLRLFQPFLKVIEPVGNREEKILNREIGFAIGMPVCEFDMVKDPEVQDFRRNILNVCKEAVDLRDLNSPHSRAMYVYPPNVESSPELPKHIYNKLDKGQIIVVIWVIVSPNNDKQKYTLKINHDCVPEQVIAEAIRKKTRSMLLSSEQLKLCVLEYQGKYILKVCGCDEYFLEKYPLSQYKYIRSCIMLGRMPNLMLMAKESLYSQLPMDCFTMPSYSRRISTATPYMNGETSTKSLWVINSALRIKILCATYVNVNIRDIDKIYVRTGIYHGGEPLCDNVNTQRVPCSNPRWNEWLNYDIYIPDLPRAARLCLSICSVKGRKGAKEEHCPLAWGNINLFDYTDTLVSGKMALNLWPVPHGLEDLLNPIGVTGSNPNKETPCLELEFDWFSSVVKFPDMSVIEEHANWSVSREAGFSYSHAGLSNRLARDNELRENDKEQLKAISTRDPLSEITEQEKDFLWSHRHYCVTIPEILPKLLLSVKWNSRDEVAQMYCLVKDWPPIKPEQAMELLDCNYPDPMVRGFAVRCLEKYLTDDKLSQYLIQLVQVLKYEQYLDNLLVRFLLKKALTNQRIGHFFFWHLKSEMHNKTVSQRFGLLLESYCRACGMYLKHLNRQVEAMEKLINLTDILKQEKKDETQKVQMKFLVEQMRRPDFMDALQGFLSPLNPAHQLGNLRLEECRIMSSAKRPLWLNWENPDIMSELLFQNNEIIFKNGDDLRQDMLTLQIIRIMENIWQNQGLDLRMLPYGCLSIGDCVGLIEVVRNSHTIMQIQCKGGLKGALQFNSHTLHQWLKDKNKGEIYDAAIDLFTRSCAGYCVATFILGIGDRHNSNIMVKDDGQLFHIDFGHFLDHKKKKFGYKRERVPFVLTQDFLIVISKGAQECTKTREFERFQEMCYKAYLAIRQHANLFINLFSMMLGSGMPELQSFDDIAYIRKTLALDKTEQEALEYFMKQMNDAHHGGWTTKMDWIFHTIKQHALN
Procedure: as §1

Sequence of Phosphatidylinositol 4,5-bisphosphate 3-kinase catalytic subunit beta isoform (P42338 whole entry, canonical isoform): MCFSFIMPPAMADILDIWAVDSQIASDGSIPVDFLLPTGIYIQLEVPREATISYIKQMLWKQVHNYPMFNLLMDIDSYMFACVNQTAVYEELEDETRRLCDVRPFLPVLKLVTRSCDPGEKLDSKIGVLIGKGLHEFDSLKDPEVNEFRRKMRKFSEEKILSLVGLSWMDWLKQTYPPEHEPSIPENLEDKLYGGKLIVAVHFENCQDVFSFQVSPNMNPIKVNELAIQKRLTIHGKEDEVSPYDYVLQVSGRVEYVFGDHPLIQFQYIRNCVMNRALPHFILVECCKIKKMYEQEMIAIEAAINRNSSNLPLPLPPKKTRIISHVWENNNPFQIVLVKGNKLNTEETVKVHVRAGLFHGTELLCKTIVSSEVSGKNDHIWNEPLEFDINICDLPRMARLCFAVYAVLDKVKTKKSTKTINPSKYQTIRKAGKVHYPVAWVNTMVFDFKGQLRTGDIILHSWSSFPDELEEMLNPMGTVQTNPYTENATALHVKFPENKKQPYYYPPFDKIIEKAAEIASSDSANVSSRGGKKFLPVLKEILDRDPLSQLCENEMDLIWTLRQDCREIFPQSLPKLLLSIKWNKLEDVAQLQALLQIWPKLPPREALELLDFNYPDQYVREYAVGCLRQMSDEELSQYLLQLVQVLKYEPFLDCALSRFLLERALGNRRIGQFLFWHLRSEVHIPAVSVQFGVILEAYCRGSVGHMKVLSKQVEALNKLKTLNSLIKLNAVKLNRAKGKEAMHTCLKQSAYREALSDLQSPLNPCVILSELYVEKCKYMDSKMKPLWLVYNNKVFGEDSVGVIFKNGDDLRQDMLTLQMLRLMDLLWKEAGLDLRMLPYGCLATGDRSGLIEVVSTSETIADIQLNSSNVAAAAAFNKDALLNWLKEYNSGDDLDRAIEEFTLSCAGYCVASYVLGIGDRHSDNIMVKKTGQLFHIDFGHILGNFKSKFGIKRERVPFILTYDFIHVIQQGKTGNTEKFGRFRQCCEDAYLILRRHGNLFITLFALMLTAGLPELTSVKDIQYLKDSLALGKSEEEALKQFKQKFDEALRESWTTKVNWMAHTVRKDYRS

As for `Nc1nc2cc(-c3ccc4ncc(-c5ccncc5)n4c3)ccc2o1` [US9682141, 6], the half-inhibitory concentration (IC50) in assay [1] is under 10 µM.

Consider `Nc1nc2cc(-c3ccc4ncn(-c5ccccc5)c4c3)ccc2o1` [US9682141, 11], for which the IC50 in assay [2] is under 0.1 µM; in assay [1], under 10 µM.

As a reminder, the IC50 is the midpoint of a concentration-inhibition curve. The low end stands for greater potency, the high end for weaker potency.
